The values that follow come from the supplement of paper PMC10784567.

± gives the standard deviation of the averaged measurements.

What is called absolute IC50 is the concentration giving 50% inhibition relative to the control.

Compound in this test: C=C1C[C@H]2C=Nc3cc(OCCCCCOc4cc5c(cc4OC)C(=O)N4CC(=C)C[C@H]4C=N5)c(OC)cc3C(=O)N2C1 [SG2057]
Put plainly: absolute IC50 (cell viability, CellTiter-Glo); higher = less potent. The following applies: treatment time: 3 days. The procedure: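 Large cancer cell line panel screens in 384-well plates. Cells were treated for 3 days with a 9-point dose titration of the free PBD dimer SG2057; viability was read with CellTiter-Glo. Absolute IC50 came from a four-parameter Hill fit normalised to the median of vehicle (DMSO) wells. Several independent screens (projects) per cell line are averaged; values in µM, lowest-dose floor about 1.524e-5 µM.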
(Cellular ATP, detected with luciferase, serves as a proxy for viable cell number.)
Regarding MCF 10A AKT2 -/- (Sigma), the “absolute IC50” value came out at 2140 pM. Next, JC: 463 pM. Next, SW 900: 3180 pM; COLO 320: 12000 pM; KYSE-510: 68.6 pM. Next, HCC193: 3170 ± 2200 pM; HNT-34: 76 ± 67 pM. Reh: the “absolute IC50” value was 757 pM. As to NJG, the “absolute IC50” value is 151 pM. On to FTC-133, for which the “absolute IC50” value was 122 pM.

Turning to NCI-H661, the “absolute IC50” value was found to be 1780 ± 3400 pM.

As for HCC1187, the “absolute IC50” value worked out at 601 ± 690 pM. Next, NCI-H322T: 912 pM. With NCI-H2052, the “absolute IC50” value worked out at 717 pM. Next, HCC2302: 8980 pM; HMY-1: 1170 ± 940 pM. Next, EMT6 Luciferase: 606 pM; GCH-nu-YS: 242 pM; HCA-1: 4690 pM. Next, WiDr: 1380 ± 420 pM; KALS-1: 336 pM. As for NCI-H2170, the “absolute IC50” value stood at 646 ± 11 pM. Next, NCI-H520: 4030 ± 2500 pM; 143B: 191 pM. Next, NB69: 612 pM; NCI-H1915: 2400 pM. For 786-O, the “absolute IC50” value was 1240 ± 1800 pM. For FU97, the “absolute IC50” value was 1570 pM. Next, SK-N-SH: 114 pM; BHY: 183 pM. Consider LA-4, for which the “absolute IC50” value was found to be 1590 pM. As to GB-1, the “absolute IC50” value turned out to be 1120 pM.

SNU-668: the “absolute IC50” value is 573 pM. Next, DAN-G: 694 ± 320 pM; NUGC-4: 443 pM; OVCAR-5: 1080 ± 300 pM.

Consider UM-RC-6, for which the “absolute IC50” value is 651 pM. Next, G141: 924 ± 650 pM; NCI-H1993: 564 pM; OV-90: 2130 ± 1300 pM.

As for U266B1, the “absolute IC50” value is 2640 ± 2400 pM. On to HSC-5, for which the “absolute IC50” value was found to be 621 pM. Next, UCSD-242l: 1290 ± 840 pM. Next, SNG-M: 285 ± 160 pM; HLE: 2700 pM; KYSE-30: 368 pM.

Regarding RT-112, the “absolute IC50” value was determined as 1530 ± 2800 pM. Next, Hs 839.T: 6790 pM; HEC-116: 464 pM. Next, HDQ-P1: 4080 ± 4400 pM; 66c14: 725 pM. As to Panc 05.04, the “absolute IC50” value came out at 1680 ± 400 pM.

HCC1493: the “absolute IC50” value was 412 ± 720 pM. Turning to MCF 10A PTEN -/- (Sigma), the “absolute IC50” value came to 2540 pM.

COV413B: the “absolute IC50” value was found to be 2730 ± 3900 pM. Next, MDA-MB-436: 326 ± 200 pM; A-673: 66.1 pM. Next, IM-95m: 3430 pM. Next, U-2 OS: 530 pM.

Take NCI-H889: the “absolute IC50” value amounted to 1320 pM.

Regarding NCI-H2803, the “absolute IC50” value came out at 3860 pM. Next, BICR 22: 854 pM; FaDu: 350 pM. Next, KLM-1: 1000 ± 960 pM. Next, JJ012: 6350 pM.

For JHH-2, the “absolute IC50” value worked out at 4840 ± 8100 pM. In the case of MR1-3, the “absolute IC50” value was determined as 256 pM. Next, 51BLim 10: 371 pM; Calu-6: 6780 pM. Next, HCC364: 2860 ± 4400 pM; OV56: 195 ± 300 pM. Turning to NCI-H1838, the “absolute IC50” value is 2320 ± 2800 pM.

Regarding NCI-H2106, the “absolute IC50” value was found to be 1360 ± 710 pM. Next, COLO 320DM: 20200 pM; SNU-C1: 3400 ± 350 pM.

Regarding HUP-T4, the “absolute IC50” value was 1090 ± 1100 pM. With SF268, the “absolute IC50” value came to 424 ± 770 pM. As to MC-IXC, the “absolute IC50” value was found to be 16.3 pM. Next, KYSE-180: 667 pM. Next, LL/2: 449 pM. Next, U-2932: 213 ± 230 pM. For the test system Ca Ski, the “absolute IC50” value stood at 254 pM. Next, AM-38: 4530 pM; Hs 38.T: 1360 ± 1700 pM; SKG-IIIb: 1790 pM.

Take BT-474: the “absolute IC50” value was 4090 ± 3700 pM. Next, AMO-1: 409 ± 150 pM. Next, PAN 02 X1: 839 pM; NCI-H1648: 8580 pM; GI-1: 311 pM. Next, IGR-37: 339 ± 470 pM; CHP-212: 105 pM. Consider EB-3, for which the “absolute IC50” value stood at 637 ± 850 pM.

In the case of HCC1263, the “absolute IC50” value came out at 5650 ± 3700 pM. Next, JHH-7: 1940 pM; COLO 205: 1520 ± 480 pM; SNU-449: 5840 pM. Next, SW 837: 4010 ± 210 pM; NCI-H2405: 552 ± 380 pM. Next, NCI-H2171: 742 ± 1300 pM; SCLC-21H: 788 pM.

With LTPA, the “absolute IC50” value came out at 1460 pM.

Take SW 480: the “absolute IC50” value was found to be 462 ± 510 pM. Take SNU-601: the “absolute IC50” value was determined as 89.7 ± 46 pM. Next, BEN: 43100 pM; UM-RC-7: 672 pM; HCC1319: 12800 pM.

On to OVCAR-4, for which the “absolute IC50” value was 1330 ± 490 pM. Turning to 1624-17095 (Tumor A), the “absolute IC50” value was determined as 1310 pM. Next, HCSC-1: 3070 pM; MDA-MB-468: 353 ± 360 pM.

For CI-1, the “absolute IC50” value came to 104 ± 14 pM. Next, SNU-475: 2560 ± 3800 pM. Next, OvCA 429: 139 ± 67 pM. Next, VMRC-LCD: 4270 pM; NB(TU)1-10: 604 pM; C32: 310 ± 98 pM. As for CAL-12T, the “absolute IC50” value stood at 3570 ± 3200 pM.

Turning to HCC3335, the “absolute IC50” value turned out to be 1590 pM. As to Hs 895.T, the “absolute IC50” value was 7530 pM. Next, G121: 799 ± 380 pM; RL95-2: 1900 pM. Next, JHH-5: 248 pM; ML-2: 57.2 ± 13 pM; HEC-251: 1280 pM. Take COLO 824: the “absolute IC50” value was determined as 192 pM. Next, MM.1S: 474 ± 490 pM. Next, JHH-4: 555 ± 540 pM; MeWo: 1080 ± 370 pM.

In the case of BA/F3, the “absolute IC50” value is 114 pM. For 1624-17147 (Tumor A), the “absolute IC50” value worked out at 1270 pM. As for MC-38, the “absolute IC50” value came to 186 pM.

Take KE-97: the “absolute IC50” value is 193 ± 110 pM. Next, NCI-H1930: 34.6 pM; G111: 208 ± 220 pM. Next, AE17: 259 pM; IGR-39: 98.1 ± 20 pM. Next, GOS-3: 597 pM; JVM-2: 374 ± 480 pM; SNU-387: 5760 pM. For the test system AN3 CA, the “absolute IC50” value is 1450 pM. Take KURAMOCHI: the “absolute IC50” value amounted to 4220 pM. Next, PK-45P: 6290 ± 1900 pM.
